Results as given in patent US20140329872A1, “TREATMENT OF HYPERTENSION AND/OR PREVENTION OR TREATMENT OF HEART FAILURE IN A MAMMAL RECEIVING ANTI-COAGULANT THERAPY” (NOVARTIS AG, priority 2010, published 2014).
Read-outs that look alike come from different tables or passages of the source.

Tests used:
[1] = tested on: extrinsic pathway of coagulation
Excerpt: The prothrombin time (PT) and its derived measures of prothrombin ratio (PR) and international normalized ratio (INR) are measures of the extrinsic pathway of coagulation. […] The prothrombin time is the time it takes blood plasma to clot after addition of tissue factor (obtained from animals). The result (in seconds) of the prothrombin time performed in a normal individual will vary depending the analytical system and method used. This is due to differences between different batches of manufacturer's tissue factor used to perform the test.
The international normalized ratio (INR) was devised to standardize the results. The INR is the ratio of a patient's prothrombin time (PT) to a normal (control) sample, raised to the power of the International Sensitivity Index (ISI) value for the analytical system used.

[2] = for AUCinf, adjusted geometric mean / AUClast, adjusted geometric mean / Cmax, adjusted geometric mean: healthy subjects, N=25; for pharmacokinetic interaction with LCZ696 (steady-state concentration-time profiles): in the presence and absence of LCZ696, FIG. 1a, 1b
Excerpt: This study employs a single blind, randomized, two-period, crossover design. All subjects are blinded to the treatment to eliminate study bias. Each subject participates in a screening period, two baseline periods, and two treatment periods. A washout period of at least 10 days but not more than 14 days separates each treatment period.
This study employs a single blind, randomized, two-period, crossover design. Twenty six healthy male and female subjects are enrolled to ensure at least 20 completers. Each subject participates in a screening period (day-21 to day-2), two baseline periods (day-1), two treatment periods, a washout period of at least 10 days separating the treatment periods, and a study completion evaluation. Subjects undergo routine safety testing during screening, including physical, routine hematology, biochemistry, urinalysis, viral serology screening, pregnancy testing (female subjects), urine drug screening, alcohol screening, standard 12-lead electrocardiogram (ECG), and vital signs assessments to establish eligibility.
Subjects are randomized into the following two treatment sequences during treatment Period 1 and Period 2 as shown.
Treatment Period 1: Those subjects who successfully pass screening (Days-21 to -2) report to the study center in the morning of the day prior to the initial dosing (Day-1) for admission into the study center, at which time they undergo baseline safety evaluations as conducted during screening (except viral serology). All baseline safety evaluation results should be available prior to first dosing. Subjects are domiciled for at least 11 days during each treatment period.
Serial samples for drug/placebo pharmacokinetics are collected on Day 4 for up to 12 hours post morning dose.
In the evening prior to each of full pharmacokinetic (PK) assessment days (Day 4 & day 5) the subjects fast overnight (10-12 hours) prior to dosing, and continue to fast until 4 hours post-dose. On Day 1, 2, 3, 6, 7, 8, 9, and 10 the subjects are dosed following an overnight fast of 10-12 hours and receive breakfast 30 minutes post-dose, and evening snacks are provided 30 minutes after evening dosing on all dosing days.
Treatment Period 2: Subjects are required to return to the study center following a washout period of at least 10 days for period 2 baseline evaluation (Day-1). All study related activities including pharmacokinetic sampling for all treatments follow the same schedule as in Period 1.

[3] = healthy subjects, Warfarin 25 mg single dose with LCZ696 200 mg b.i.d. or with placebo, N=25
[4] = LCZ696 200 mg b.i.d. + Warfarin 25 mg single dose on Day 5
[5] = Placebo + Warfarin 25 mg single dose on Day 5

| Compound | Mean INR (AUCINR/144), geometric mean [1, 3] | Mean Prothrombin time (AUCPT/144), geometric mean [1, 3] | Peak INR, geometric mean [1, 3] | Peak prothrombin time, geometric mean [1, 3] | interaction with LCZ696 as indicated by the INR ([1]; warfarin (racemic) administration, FIG. 3) | interaction with LCZ696 as indicated by prothrombin times ([1]; warfarin (racemic) in the presence and absence (placebo) of LCZ696, FIG. 2) | AUCinf, adjusted geometric mean [2, 4] | AUClast, adjusted geometric mean [2, 4] | Cmax, adjusted geometric mean [2, 4] | AUCinf, adjusted geometric mean [2, 5] | AUClast, adjusted geometric mean [2, 5] | Cmax, adjusted geometric mean [2, 5] | pharmacokinetic interaction with LCZ696 (steady-state concentration-time profiles) [2] |
| --- | --- | --- | --- | --- | --- | --- | --- | --- | --- | --- | --- | --- | --- |
| CC(=O)CC(c1ccccc1)c1c(O)c2ccccc2oc1=O (racemic) [Warfarin, (RS)-4-hydroxy-3-(3-oxo-1-phenylbutyl)-2H-chromen-2-one] | 1.30 | 16.51 s | 1.90 | 22.00 s | lack of interaction | lack of interaction |  |  |  |  |  |  |  |
| CC(=O)C[C@H](c1ccccc1)c1c(O)c2ccccc2oc1=O [R-Warfarin] |  |  |  |  |  |  | 64891.96 ng·h/mL | 58796.87 ng·h/mL | 1325.29 ng/mL | 66153.48 ng·h/mL | 59534.11 ng·h/mL | 1373.71 ng/mL | lack of pharmacokinetic interaction |
| CC(=O)C[C@@H](c1ccccc1)c1c(O)c2ccccc2oc1=O [S-Warfarin] |  |  |  |  |  |  | 50677.20 ng·h/mL | 46647.81 ng·h/mL | 1344.45 ng/mL | 52027.31 ng·h/mL | 47570.37 ng·h/mL | 1414.20 ng/mL | lack of pharmacokinetic interaction |
